# Laboratory results from ChEMBL document CHEMBL3217493, “Approaches to discover non-ATP site kinase inhibitors” (Medchemcomm, 2013).
# Target: Mitogen-activated protein kinase 1 (Homo sapiens, UniProt P28482)
# Test: Binding affinity to ERK2 (unknown origin)
# Sequence of Mitogen-activated protein kinase 1 (P28482 whole entry): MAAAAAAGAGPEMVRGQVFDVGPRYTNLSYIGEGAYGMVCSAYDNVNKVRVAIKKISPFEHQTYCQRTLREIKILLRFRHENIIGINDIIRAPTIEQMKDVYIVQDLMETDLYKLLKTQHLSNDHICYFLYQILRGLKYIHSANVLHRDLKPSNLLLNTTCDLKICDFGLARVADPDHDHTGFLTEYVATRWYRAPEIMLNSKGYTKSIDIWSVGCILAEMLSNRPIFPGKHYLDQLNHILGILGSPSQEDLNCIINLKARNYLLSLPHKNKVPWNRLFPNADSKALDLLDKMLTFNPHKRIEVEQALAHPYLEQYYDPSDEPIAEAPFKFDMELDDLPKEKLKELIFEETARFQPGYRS
structure (smiles),measurement,value
COc1ccc(/C=C2\SC(=O)N(CCN)C2=O)cc1,Kd,5 µM
